# Data reported in paper PMC6271681, “Discovery of Novel c-Met Inhibitors Bearing a 3-Carboxyl Piperidin-2-one Scaffold” (Molecules, 2014).
# Columns and labels:
# MKN45 cells = experiment: Cell proliferation assay (SRB, 72 h); type: cell-based; conditions: MKN-45, MKN45 human gastric cancer cell line with constitutively active c-Met
# Procedure: Cells were seeded in 96-well tissue culture plates. On the next day, the cells were exposed to various concentrations of compounds and further cultured for 72 h. Cell proliferation was then determined using sulforhodamine B (SRB, Sigma, St. Louis, MO, USA). The IC50 values were calculated by concentration-response curve fitting using the four-parameter method.
# c-Met kinase = c-Met kinase (Homo sapiens, UniProt P08581); experiment: c-Met kinase assay (ELISA, purified recombinant protein); type: biochemical; conditions: for c-Met inhibition rate @10 μM / inhibition at 10 µM: compound at 10 μM; for inhibition at 1 µM: read-out: c-Met inhibition rate @1 μM; for inhibition at 10 µM: read-out: c-Met inhibition rate @10 μM; for IC50: ELISA, poly(Glu,Tyr)4:1 substrate, two separate experiments
# Procedure: The effects of indicated compound on the activities of c-Met kinases were determined using enzyme-linked immunosorbent assays (ELISAs) with purified recombinant proteins. Briefly, 20 μg/mL poly (Glu,Tyr)4:1 (Sigma, St. Louis, MO, USA) was pre-coated in 96-well plates as a substrate. A 50-μL aliquot of 10 μmol/L ATP solution diluted in kinase reaction buffer (50 mmol/L HEPES [pH 7.4], 50 mmol/L MgCl2, 0.5 mmol/L MnCl2, 0.2 mmol/L Na3VO4, and 1 mmol/L DTT) was added to each well; 1 μL of various concentrations of indicated compound diluted in 1% DMSO (v/v) (Sigma) were then added to each reaction well. DMSO (1%, v/v) was used as the negative control. The kinase reaction was initiated by the addition of purified c-Met tyrosine kinase proteins diluted in 49 μL of kinase reaction buffer. After incubation for 60 min at 37 °C, the plate was washed three times with phosphate-buffered saline (PBS) containing 0.1% Tween 20 (T-PBS). Anti-phosphotyrosine (PY99) antibody (100 μL; 1:500, diluted in 5 mg/mL BSA T-PBS) was then added. After a 30-min incubation at 37 °C, the plate was washed three times, and 100 μL horseradish peroxidase-conjugated goat anti-mouse IgG (1:2000, diluted in 5 mg/mL BSA T-PBS) was added. The plate was then incubated at 37 °C for 30 min and washed 3 times. A 100-μL aliquot of a solution containing 0.03% H2O2 and 2 mg/ml o-phenylenediamine in 0.1 mol/L citrate buffer (pH 5.5) was added. The reaction was terminated by the addition of 50 μL of 2 mol/L H2SO4 as the color changed, and the plate was analyzed using a multi-well spectrophotometer (SpectraMAX 190, Molecular Devices, Sunnyvale, CA, USA) at 490 nm. […] The IC50 values were calculated from the inhibition curves in two separate experiments.
# c-Met = conditions: in Figure 2; cited from earlier work
# [1] = compound at 1 μM, printed in the c-Met IC50 column
# [2] = printed in the c-Met IC50 column
# c-Met kinase, sequence (P08581 25-1390): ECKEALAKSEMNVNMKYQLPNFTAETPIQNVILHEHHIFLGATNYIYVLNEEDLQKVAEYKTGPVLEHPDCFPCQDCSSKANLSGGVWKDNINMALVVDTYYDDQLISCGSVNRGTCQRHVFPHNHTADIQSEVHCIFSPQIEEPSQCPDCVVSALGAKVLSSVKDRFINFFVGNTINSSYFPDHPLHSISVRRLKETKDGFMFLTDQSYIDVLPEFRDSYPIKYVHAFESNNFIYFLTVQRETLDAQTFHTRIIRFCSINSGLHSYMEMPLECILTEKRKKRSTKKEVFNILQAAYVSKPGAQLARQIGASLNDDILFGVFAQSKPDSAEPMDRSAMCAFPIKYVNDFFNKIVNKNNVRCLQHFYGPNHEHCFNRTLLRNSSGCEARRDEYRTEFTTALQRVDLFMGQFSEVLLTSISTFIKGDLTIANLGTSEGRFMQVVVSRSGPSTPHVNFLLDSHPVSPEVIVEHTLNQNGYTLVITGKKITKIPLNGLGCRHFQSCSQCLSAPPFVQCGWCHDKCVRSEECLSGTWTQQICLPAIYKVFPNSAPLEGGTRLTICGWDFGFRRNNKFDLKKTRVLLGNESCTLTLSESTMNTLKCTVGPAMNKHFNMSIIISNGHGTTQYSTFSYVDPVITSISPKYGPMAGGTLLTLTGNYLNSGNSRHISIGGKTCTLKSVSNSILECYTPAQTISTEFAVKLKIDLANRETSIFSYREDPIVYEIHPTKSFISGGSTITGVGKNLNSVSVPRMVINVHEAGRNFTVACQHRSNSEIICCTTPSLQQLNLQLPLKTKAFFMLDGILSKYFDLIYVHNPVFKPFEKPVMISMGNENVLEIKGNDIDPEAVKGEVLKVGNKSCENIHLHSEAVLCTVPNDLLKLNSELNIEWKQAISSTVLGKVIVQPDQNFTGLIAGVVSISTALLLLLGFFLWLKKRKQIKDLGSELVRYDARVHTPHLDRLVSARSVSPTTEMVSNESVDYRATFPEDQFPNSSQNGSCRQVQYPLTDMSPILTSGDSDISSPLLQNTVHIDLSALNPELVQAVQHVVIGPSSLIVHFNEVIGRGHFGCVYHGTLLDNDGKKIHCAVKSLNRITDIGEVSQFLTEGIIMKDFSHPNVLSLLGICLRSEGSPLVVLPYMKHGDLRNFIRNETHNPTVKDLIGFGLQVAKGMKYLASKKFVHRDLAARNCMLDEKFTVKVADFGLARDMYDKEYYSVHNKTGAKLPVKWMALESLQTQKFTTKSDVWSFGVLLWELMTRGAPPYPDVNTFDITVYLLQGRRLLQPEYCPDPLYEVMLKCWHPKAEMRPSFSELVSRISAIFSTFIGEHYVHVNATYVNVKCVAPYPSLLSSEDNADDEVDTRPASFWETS
Compound,IC50 (MKN45 cells) [µM],inhibition at 10 µM (c-Met kinase; [2]) [%],further results
"COc1cc2nccc(Oc3ccc(NC(=O)C4(Cl)CCCN(c5ccc(F)cc5)C4=O)cc3F)c2cc1OC (centres unmarked) [Compound 20b, 3-Chloro-N-(4-((6,7-dimethoxyquinolin-4-yl)oxy)-3-fluorophenyl)-1-(4-fluorophenyl)-2-oxopiperidine-3-carboxamide]",0.57 ± 0.04,–,–
"N-(4-((7H-pyrrolo[2,3-d]pyrimidin-4-yl)oxy)-3-fluorophenyl)-1-(4-fluorophenyl)-2-oxopiperidine-3-carboxamide [Compound 17a]",–,–,c-Met inhibition rate @1 μM (c-Met kinase; [1]): 41.9%@1 μM; c-Met inhibition rate @10 μM (c-Met kinase; [2]): 70.7%@10 μM
"Nc1nccc(Oc2ccc(NC(=O)C3CCCN(c4ccc(F)cc4)C3=O)cc2F)n1 (centres unmarked) [Compound 19a, N-(4-((2-aminopyrimidin-4-yl)oxy)-3-fluorophenyl)-1-(4-fluorophenyl)-2-oxopiperidine-3-carbox-amide]",–,59.1,inhibition at 1 µM (c-Met kinase; [1]): 27.5%
"COc1ccc(CNc2nccc(Oc3ccc(NC(=O)C4CCCN(c5ccc(F)cc5)C4=O)cc3F)n2)cc1 (centres unmarked) [Compound 18a, N-(3-fluoro-4-((2-((4-methoxybenzyl)amino)pyrimidin-4-yl)oxy)phenyl)-1-(4-fluorophenyl)-2-oxo-piperidine-3-carboxamide]",–,28.4,–
"NC(=O)c1nccc(Oc2ccc(NC(=O)C3CCCN(c4ccc(F)cc4)C3=O)cc2F)c1Cl (centres unmarked) [Compound 15a, 3-Chloro-4-(2-fluoro-4-(1-(4-fluorophenyl)-2-oxopiperidine-3-carboxamido)phenoxy)picolinamide]",–,63.9,–
"COc1ccc(CNc2nccc(Oc3ccc(NC(=O)C4(Cl)CCCN(c5ccc(F)cc5)C4=O)cc3F)n2)cc1 (centres unmarked) [Compound 18b, 3-Chloro-N-(3-fluoro-4-((2-((4-methoxybenzyl)amino)pyrimidin-4-yl)oxy)phenyl)-1-(4-fluorophenyl)-2-oxopiperidine-3-carboxamide]",–,10,–
"CCC1(C(=O)Nc2ccc(Oc3ccnc4cc(OC)c(OC)cc34)c(F)c2)CCCN(c2ccc(F)cc2)C1=O (centres unmarked) [Compound 20d, N-(4-((6,7-dimethoxyquinolin-4-yl)oxy)-3-fluorophenyl)-3-ethyl-1-(4-fluorophenyl)-2-oxopiperidine-3-carboxamide]",2.95 ± 0.12,–,IC50 (c-Met kinase): 0.0191 ± 0.0045 µM
"COc1cc2nccc(Oc3ccc(NC(=O)C4CCCN(c5ccc(F)cc5)C4=O)cc3F)c2cc1OC (centres unmarked) [Compound 20a, N-(4-((6,7-dimethoxyquinolin-4-yl)oxy)-3-fluorophenyl)-1-(4-fluorophenyl)-2-oxopiperidine-3-carbox-amide]",–,38.4,–
"COc1cc2nccc(Oc3ccc(NC(=O)C4(C)CCCN(c5ccc(F)cc5)C4=O)cc3F)c2cc1OC (centres unmarked) [Compound 20c, N-(4-((6,7-dimethoxyquinolin-4-yl)oxy)-3-fluorophenyl)-1-(4-fluorophenyl)-3-methyl-2-oxopiperidine-3-carboxamide]",0.65 ± 0.13,–,IC50 (c-Met kinase): 0.0112 ± 0.0041 µM
"CCOc1ccn(-c2ccc(F)cc2)c(=O)c1C(=O)Nc1ccc(Oc2ccnc(N)c2Cl)c(F)c1 [BMS-777607, N-(4-(2-amino-3-chloropyridin-4-yloxy)-3-fluorophenyl)-4-ethoxy-1-(4-fluorophenyl)-2-oxo-1,2-dihydropyridine-3-carboxamide, reference compound]",0.29 ± 0.02,–,IC50 (c-Met): 0.0039 µM; IC50 (c-Met kinase): 0.0037 ± 0.0013 µM
"NC(=O)c1nccc(Oc2ccc(NC(=O)C3(Cl)CCCN(c4ccc(F)cc4)C3=O)cc2F)c1Cl (centres unmarked) [Compound 15b, 3-Chloro-4-(4-(3-chloro-1-(4-fluorophenyl)-2-oxopiperidine-3-carboxamido)-2-fluorophenoxy)-picolinamide]",–,90.2,inhibition at 1 µM (c-Met kinase; [1]): 38.7%
"Nc1nccc(Oc2ccc(NC(=O)C3(Cl)CCCN(c4ccc(F)cc4)C3=O)cc2F)n1 (centres unmarked) [Compound 19b, N-(4-((2-aminopyrimidin-4-yl)oxy)-3-fluorophenyl)-3-chloro-1-(4-fluorophenyl)-2-oxopiperidine-3-carboxamide]",–,52.5,inhibition at 1 µM (c-Met kinase; [1]): 28.3%
"CCCCC1(C(=O)Nc2ccc(Oc3ccnc4cc(OC)c(OC)cc34)c(F)c2)CCCN(c2ccc(F)cc2)C1=O (centres unmarked) [Compound 20e, N-(4-((6,7-dimethoxyquinolin-4-yl)oxy)-3-fluorophenyl)-3-butyl-1-(4-fluorophenyl)-2-oxopiperidine-3-carboxamide]",16 ± 0.8,–,IC50 (c-Met kinase): 0.064 ± 0.0108 µM
"N-(4-((7H-pyrrolo[2,3-d]pyrimidin-4-yl)oxy)-3-fluorophenyl)-3-chloro-1-(4-fluorophenyl)-2-oxo-piperidine-3-carboxamide [Compound 17b]",–,–,c-Met inhibition rate @10 μM (c-Met kinase; [2]): 15.4%@10 μM
